≈ marks a conversion by molar mass, not a printed value. Like-named read-outs stand apart in the source and are kept apart here.
Assays:
Assay type in all cases: cell-based, Acinetobacter baumannii
A. baumannii HUMC12 = experiment: microbe, parasite or virus in culture; conditions: for MIC: Acinetobacter baumannii
A. baumannii HUMC1 = experiment: microbe, parasite or virus in culture; conditions: for MIC: Acinetobacter baumannii
A. baumannii HUMC4 = experiment: microbe, parasite or virus in culture; conditions: for MIC: Acinetobacter baumannii
A. baumannii HUMC6 = experiment: microbe, parasite or virus in culture; conditions: for MIC: Acinetobacter baumannii
A. baumannii HUMC5 = experiment: microbe, parasite or virus in culture; conditions: for MIC: Acinetobacter baumannii
A. baumannii ATCC 17978 = experiment: Antibacterial minimum inhibitory concentrations for clinical isolates; conditions: strain ATCC 17978; for MIC: Acinetobacter baumannii, ATCC17978
[1] = strain HUMC12, read-out: Antibacterial Minimum Inhibitory Concentrations
[2] = HUMC1, read-out: Antibacterial Minimum Inhibitory Concentrations
[3] = strain HUMC4, read-out: Antibacterial Minimum Inhibitory Concentrations
[4] = strain HUMC6, read-out: Antibacterial Minimum Inhibitory Concentrations
[5] = strain HUMC5, read-out: Antibacterial Minimum Inhibitory Concentrations
[6] = strain HUMC1, read-out: Antibacterial Minimum Inhibitory Concentrations

Compound | MIC (A. baumannii HUMC12; [1]) [µg/mL] | MIC (A. baumannii HUMC1; [2]) [µg/mL] | MIC (A. baumannii HUMC4; [3]) [µg/mL] | MIC (A. baumannii HUMC6; [4]) [µg/mL] | MIC (A. baumannii HUMC5; [5]) [µg/mL] | MIC (A. baumannii ATCC 17978) [µg/mL] | MIC (A. baumannii HUMC1; [6]) [µg/mL] | Antibacterial Minimum Inhibitory Concentrations (A. baumannii HUMC12; strain HUMC12) | Antibacterial Minimum Inhibitory Concentrations (A. baumannii HUMC1; strain HUMC1) | Antibacterial Minimum Inhibitory Concentrations (A. baumannii HUMC4; strain HUMC4) | Antibacterial Minimum Inhibitory Concentrations (A. baumannii HUMC6; strain HUMC6) | Antibacterial Minimum Inhibitory Concentrations (A. baumannii HUMC5; strain HUMC5) | other results
NCC[C@H](O)C(=O)N[C@@H]1C[C@H](N)[C@@H](O[C@H]2O[C@H](CN)[C@@H](O)[C@H](O)[C@H]2O)[C@H](O)[C@H]1O[C@H]1O[C@H](CO)[C@@H](O)[C@H](N)[C@H]1O [Amikacin] | > 128 | > 128 | > 128 | > 128 | > 128 | 8 (≈ 13.7 µM) |  |  |  |  |  |  | 
C[C@@H](O)[C@H]1C(=O)N2C(C(=O)O)=C(S[C@@H]3CN[C@H](CNS(N)(=O)=O)C3)[C@H](C)[C@H]12 [Doripenem] | 8 (≈ 19 µM) |  | 4 (≈ 9.51 µM) | 4 (≈ 9.51 µM) | 8 (≈ 19 µM) | 0.5 (≈ 1.19 µM) | 16 (≈ 38 µM) |  |  |  |  |  | 
C[C@@H](O)[C@H]1C(=O)N2C(C(=O)O)=C(S[C@@H]3CN[C@H](C(=O)Nc4cccc(C(=O)O)c4)C3)[C@H](C)[C@H]12 [Ertapenem] | 16 (≈ 33.6 µM) |  | 32 (≈ 67.3 µM) | 32 (≈ 67.3 µM) | 32 (≈ 67.3 µM) | 4 (≈ 8.41 µM) | 128 (≈ 269 µM) |  |  |  |  |  | 
C[C@@H](O)[C@H]1C(=O)N2C(C(=O)O)=C(SCCN=CN)C[C@H]12 [Imipenem] | 2 (≈ 6.68 µM) |  | 4 (≈ 13.4 µM) | 4 (≈ 13.4 µM) | 4 (≈ 13.4 µM) | 0.25 (≈ 0.835 µM) | 16 (≈ 53.4 µM) |  |  |  |  |  | 
C[C@@H](O)[C@H]1C(=O)N2C(C(=O)O)=C(S[C@@H]3CN[C@H](C(=O)N(C)C)C3)[C@H](C)[C@H]12 [Meropenem] | 4 (≈ 10.4 µM) | 32 (≈ 83.4 µM) | 8 (≈ 20.9 µM) | 8 (≈ 20.9 µM) | 8 (≈ 20.9 µM) | 0.25 (≈ 0.652 µM) |  |  |  |  |  |  | 
CN(C)c1cc(NC(=O)CNC(C)(C)C)c(O)c2c1C[C@H]1C[C@H]3[C@H](N(C)C)C(O)=C(C(N)=O)C(=O)[C@@]3(O)C(O)=C1C2=O [Tigecycline] |  | 4 (≈ 6.83 µM) |  |  |  | 0.25 (≈ 0.427 µM) |  |  |  |  |  |  | MIC (A. baumannii HUMC12; HUMC12, read-out: Antibacterial Minimum Inhibitory Concentrations): 4 µg/mL (≈ 6.83 µM); MIC (A. baumannii HUMC4; HUMC4, read-out: Antibacterial Minimum Inhibitory Concentrations): 4 µg/mL (≈ 6.83 µM); MIC (A. baumannii HUMC6; HUMC6, read-out: Antibacterial Minimum Inhibitory Concentrations): 4 µg/mL (≈ 6.83 µM); MIC (A. baumannii HUMC5; HUMC5, read-out: Antibacterial Minimum Inhibitory Concentrations): 4 µg/mL (≈ 6.83 µM)
Ampicillin/sulbactam |  |  |  |  |  |  |  | 32/16 | 16/8 | 32/16 | 32/16 | 32/16 | 
Colistin |  |  |  |  |  |  |  | 2 µg/mL | 2 µg/mL | 2 µg/mL | 2 µg/mL | 2 µg/mL | Antibacterial Minimum Inhibitory Concentrations (A. baumannii ATCC 17978): 2 µg/mL
Gentamicin |  |  |  |  |  |  |  | >128 µg/mL | >128 µg/mL | >128 µg/mL | >128 µg/mL | >128 µg/mL | Antibacterial Minimum Inhibitory Concentrations (A. baumannii ATCC 17978): 8 µg/mL
Pipercillin/tazobactam |  |  |  |  |  |  |  | <128/4 | <128/4 | <128/4 | <128/4 | <128/4 | 
